# Test results reported in publication PMC7714403 (JCI Insight, 2020).
# How the values were obtained:
# AURKB = biological target: T1, AURKB (Homo sapiens, UniProt Q96GD4); assay: KdELECT binding assay
# T1 construct: purchased Eurofins DiscoverX
# JAK1 = biological target: T2, JAK1 (Homo sapiens, UniProt P23458); assay: KdELECT binding assay
# T2 construct: purchased Eurofins DiscoverX
# FLT3 D835H = biological target: T3, FLT3 D835H (Homo sapiens, UniProt P36888, D835H); assay: KdELECT binding assay
# T3 construct: purchased Eurofins DiscoverX
# [1] = tested on: pAURKA, pAURKB, pAKT, and MCL1 in OCI-AML3 cells; assay: Western blot, signaling inhibition; assay type: cell-based, human; settings: 100 nM, 4 hours
# Procedure: (§1) MOM13 cells were serum starved (RPMI plus 0.5% FBS) for 18–24 hours prior to start of drug treatment. For other cells, they were not serum starved. Drug treatments were carried out for 1 or 4 hours, at which time cells were lysed with Cell Lysis buffer (CST) or RIPA buffer (CST) supplemented with protease and phosphatase inhibitors. […] Western blots were developed with either Signal Fire ECL reagent (CST) or SuperSignal West Femto Maximum Sensitivity Substrate (Invitrogen) using Film or Odyssey FC Imaging System (LI-COR Biosciences). Western blots were repeated in 2–3 biological replicate experiments.
# [2] = tested on: phospho-FLT3 and phospho-STAT5 in MOLM13 and MV4-11 cells; assay: Western blot, signaling inhibition; assay type: cell-based, human; settings: 4 hours
# Procedure: as §1
# AKT1 = AKT1 (Homo sapiens, UniProt P31749); assay: KiNativ, OCI cells live cell; assay type: cell-based; settings: 2 h, labeling site ATP Loop, peptide […]
# AKT1, sequence (P31749 whole entry): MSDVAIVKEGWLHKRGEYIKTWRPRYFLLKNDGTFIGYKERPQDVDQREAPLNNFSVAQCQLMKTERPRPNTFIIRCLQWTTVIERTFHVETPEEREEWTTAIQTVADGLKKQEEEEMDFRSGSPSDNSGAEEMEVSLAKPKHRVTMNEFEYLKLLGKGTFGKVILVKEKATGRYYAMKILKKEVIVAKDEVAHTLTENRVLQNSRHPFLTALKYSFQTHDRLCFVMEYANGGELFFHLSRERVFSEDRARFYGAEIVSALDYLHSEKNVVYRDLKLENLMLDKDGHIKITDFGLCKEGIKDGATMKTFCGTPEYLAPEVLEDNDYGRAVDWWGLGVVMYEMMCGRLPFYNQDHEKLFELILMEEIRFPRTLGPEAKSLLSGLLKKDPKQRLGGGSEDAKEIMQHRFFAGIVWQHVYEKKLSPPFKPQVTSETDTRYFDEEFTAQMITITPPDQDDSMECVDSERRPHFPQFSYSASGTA
# CK1a = CK1a (Homo sapiens, UniProt P48729); assay: KiNativ, OCI cells live cell; assay type: cell-based; settings: 2 h, labeling site Lys2, peptide […]
# CK1a, sequence (P48729 whole entry): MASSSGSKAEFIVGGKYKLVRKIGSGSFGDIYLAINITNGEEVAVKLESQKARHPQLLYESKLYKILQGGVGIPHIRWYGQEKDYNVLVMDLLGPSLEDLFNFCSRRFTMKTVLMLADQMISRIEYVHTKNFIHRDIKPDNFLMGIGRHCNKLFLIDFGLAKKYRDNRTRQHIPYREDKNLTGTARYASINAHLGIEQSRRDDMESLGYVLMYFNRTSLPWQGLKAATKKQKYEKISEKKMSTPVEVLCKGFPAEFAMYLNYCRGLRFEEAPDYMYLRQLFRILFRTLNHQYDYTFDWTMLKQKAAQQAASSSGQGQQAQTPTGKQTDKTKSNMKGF
# CSK = CSK (Homo sapiens, UniProt P41240); assay: KiNativ, OCI cells live cell; assay type: cell-based
# CSK, sequence (P41240 whole entry): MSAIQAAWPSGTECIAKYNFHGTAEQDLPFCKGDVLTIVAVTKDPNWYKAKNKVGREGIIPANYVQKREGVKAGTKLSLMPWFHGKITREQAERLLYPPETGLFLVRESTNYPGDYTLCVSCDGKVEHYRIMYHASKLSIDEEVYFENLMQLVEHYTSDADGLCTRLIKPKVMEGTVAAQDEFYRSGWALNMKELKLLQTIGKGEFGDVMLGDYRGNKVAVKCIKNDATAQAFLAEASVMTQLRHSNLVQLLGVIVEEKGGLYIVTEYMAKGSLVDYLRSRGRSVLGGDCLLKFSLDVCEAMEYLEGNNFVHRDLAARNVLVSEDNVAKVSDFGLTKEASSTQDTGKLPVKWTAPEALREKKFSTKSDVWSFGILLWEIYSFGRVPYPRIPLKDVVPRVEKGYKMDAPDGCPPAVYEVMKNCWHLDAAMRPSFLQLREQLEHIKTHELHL
# FES = FES (Homo sapiens, UniProt P07332); assay: KiNativ, OCI cells live cell; assay type: cell-based; settings: 2 h, labeling site Lys1, peptide […]
# HCK = HCK (Homo sapiens, UniProt P08631); assay: KiNativ, OCI cells live cell; assay type: cell-based; settings: 2 h, labeling site Activation Loop, peptide […]
# HCK, sequence (P08631 whole entry): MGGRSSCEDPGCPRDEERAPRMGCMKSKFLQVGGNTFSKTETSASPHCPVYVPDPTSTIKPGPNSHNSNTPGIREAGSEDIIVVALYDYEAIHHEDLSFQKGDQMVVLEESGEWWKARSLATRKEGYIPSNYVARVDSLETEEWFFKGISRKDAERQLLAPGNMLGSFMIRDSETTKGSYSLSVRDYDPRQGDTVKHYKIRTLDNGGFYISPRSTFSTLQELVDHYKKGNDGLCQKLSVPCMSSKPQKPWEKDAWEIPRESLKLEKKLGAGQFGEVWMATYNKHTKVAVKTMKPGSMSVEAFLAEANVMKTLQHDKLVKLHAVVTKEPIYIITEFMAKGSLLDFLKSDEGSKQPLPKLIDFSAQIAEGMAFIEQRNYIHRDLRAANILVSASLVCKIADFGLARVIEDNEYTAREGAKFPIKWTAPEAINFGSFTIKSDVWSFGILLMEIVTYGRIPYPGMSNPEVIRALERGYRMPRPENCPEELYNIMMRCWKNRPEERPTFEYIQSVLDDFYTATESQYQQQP
# IRAK4 = biological target: T4, IRAK4 (Homo sapiens, UniProt Q9NWZ3); assay: KiNativ, OCI cells live cell; assay type: cell-based
# T4 sequence (Q9NWZ3 1-460): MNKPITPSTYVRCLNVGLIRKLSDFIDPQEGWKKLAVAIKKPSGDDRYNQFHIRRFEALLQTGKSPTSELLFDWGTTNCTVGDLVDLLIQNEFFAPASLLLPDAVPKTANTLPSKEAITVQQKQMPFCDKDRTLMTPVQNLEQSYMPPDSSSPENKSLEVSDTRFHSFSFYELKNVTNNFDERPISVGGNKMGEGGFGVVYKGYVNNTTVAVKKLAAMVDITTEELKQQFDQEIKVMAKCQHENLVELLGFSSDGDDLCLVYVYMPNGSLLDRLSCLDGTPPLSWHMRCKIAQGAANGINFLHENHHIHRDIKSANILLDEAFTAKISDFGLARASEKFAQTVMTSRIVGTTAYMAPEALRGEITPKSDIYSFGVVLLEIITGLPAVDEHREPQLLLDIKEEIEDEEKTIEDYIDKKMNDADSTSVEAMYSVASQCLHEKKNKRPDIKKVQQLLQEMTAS
# JNK1, JNK2, JNK3 = assay: KiNativ, OCI cells live cell; assay type: cell-based, human; settings: labeling site Lys2, peptide DLKPSNIVVK
# MAP2K1 = MAP2K1 (Homo sapiens, UniProt Q02750); assay: KiNativ, OCI cells live cell; assay type: cell-based; settings: 2 h, labeling site Lys2, peptide […]
# MAP2K1, sequence (Q02750 whole entry): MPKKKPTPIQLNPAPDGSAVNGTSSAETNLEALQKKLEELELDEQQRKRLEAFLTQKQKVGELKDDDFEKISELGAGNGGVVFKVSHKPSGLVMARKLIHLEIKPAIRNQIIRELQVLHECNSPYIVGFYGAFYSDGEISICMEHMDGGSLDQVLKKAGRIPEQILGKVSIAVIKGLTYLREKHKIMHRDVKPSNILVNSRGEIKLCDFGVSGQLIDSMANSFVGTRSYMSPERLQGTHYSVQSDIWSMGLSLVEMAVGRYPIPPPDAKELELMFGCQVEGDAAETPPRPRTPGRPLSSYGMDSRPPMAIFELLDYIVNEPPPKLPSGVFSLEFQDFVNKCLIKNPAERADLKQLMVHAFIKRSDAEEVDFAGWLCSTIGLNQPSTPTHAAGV
# MAP2K4 = biological target: T5, MAP2K4 (Homo sapiens, UniProt P45985); assay: KiNativ, OCI cells live cell; assay type: cell-based; settings: 2 h
# T5 sequence (P45985 1-399): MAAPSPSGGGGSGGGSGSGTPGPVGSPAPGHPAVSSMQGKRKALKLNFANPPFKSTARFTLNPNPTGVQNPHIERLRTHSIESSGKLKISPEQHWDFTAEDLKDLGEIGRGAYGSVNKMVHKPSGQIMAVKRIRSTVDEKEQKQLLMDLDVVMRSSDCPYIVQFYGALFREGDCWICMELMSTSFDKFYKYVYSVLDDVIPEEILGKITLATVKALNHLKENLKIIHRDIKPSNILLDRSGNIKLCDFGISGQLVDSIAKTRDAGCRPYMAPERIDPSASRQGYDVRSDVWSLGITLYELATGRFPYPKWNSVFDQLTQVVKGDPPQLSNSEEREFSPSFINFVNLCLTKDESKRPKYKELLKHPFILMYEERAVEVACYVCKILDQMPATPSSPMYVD
# MAP3K6 = MAP3K6 (Homo sapiens, UniProt O95382); assay: KiNativ, OCI cells live cell; assay type: cell-based; settings: 2 h, labeling site Lys2, peptide […]
# NDR1 = NDR1 (Homo sapiens, UniProt Q15208); assay: KiNativ, OCI cells live cell; assay type: cell-based; settings: 2 h
# NDR1, sequence (Q15208 whole entry): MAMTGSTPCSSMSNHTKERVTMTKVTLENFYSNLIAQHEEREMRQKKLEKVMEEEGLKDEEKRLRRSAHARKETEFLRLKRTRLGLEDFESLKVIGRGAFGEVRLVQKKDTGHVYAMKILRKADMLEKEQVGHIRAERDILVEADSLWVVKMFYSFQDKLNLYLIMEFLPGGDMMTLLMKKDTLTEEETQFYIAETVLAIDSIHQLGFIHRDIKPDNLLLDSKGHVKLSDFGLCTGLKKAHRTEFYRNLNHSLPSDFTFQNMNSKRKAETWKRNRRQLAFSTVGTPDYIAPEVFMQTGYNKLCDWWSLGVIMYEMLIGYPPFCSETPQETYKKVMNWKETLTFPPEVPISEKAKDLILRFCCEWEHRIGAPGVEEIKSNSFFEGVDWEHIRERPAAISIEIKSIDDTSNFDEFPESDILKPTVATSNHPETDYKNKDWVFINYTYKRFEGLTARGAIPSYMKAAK
# PEK = PEK (Homo sapiens, UniProt Q9NZJ5); assay: KiNativ, OCI cells live cell; assay type: cell-based; settings: 2 h, labeling site Lys2, peptide […]
# PHKg2 = PHKg2 (Homo sapiens, UniProt P15735); assay: KiNativ, OCI cells live cell; assay type: cell-based; settings: 2 h, labeling site Lys1, peptide […]
# PKN1 = PKN1 (Homo sapiens, UniProt Q16512); assay: KiNativ, OCI cells live cell; assay type: cell-based; settings: 2 h
# PKN1, sequence (Q16512 whole entry): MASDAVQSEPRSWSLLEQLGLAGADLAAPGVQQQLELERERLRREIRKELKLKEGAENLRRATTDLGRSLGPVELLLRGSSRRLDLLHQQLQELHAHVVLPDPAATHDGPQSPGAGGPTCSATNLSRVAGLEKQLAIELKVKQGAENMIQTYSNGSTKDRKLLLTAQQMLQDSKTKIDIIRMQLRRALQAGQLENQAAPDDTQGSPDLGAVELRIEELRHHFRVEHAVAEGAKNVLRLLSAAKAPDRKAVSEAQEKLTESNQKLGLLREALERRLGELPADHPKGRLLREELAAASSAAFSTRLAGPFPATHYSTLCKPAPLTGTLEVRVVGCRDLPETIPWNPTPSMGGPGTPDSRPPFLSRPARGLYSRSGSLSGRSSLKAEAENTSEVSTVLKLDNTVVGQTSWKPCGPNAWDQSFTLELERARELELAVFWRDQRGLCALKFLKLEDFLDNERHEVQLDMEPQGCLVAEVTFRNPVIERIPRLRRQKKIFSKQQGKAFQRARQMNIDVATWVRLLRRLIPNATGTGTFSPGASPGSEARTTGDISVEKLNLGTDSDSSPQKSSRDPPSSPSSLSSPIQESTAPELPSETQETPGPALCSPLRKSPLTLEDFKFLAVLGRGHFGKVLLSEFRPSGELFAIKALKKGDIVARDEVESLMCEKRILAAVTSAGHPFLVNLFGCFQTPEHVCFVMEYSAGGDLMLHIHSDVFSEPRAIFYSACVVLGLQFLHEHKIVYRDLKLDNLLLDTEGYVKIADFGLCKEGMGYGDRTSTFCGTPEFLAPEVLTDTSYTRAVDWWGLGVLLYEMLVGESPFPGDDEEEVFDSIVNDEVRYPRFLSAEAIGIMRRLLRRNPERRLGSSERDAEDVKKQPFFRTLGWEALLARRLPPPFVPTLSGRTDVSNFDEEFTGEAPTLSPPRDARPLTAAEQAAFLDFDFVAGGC
# ROCK1 = ROCK1 (Homo sapiens, UniProt Q13464); assay: KiNativ, OCI cells live cell; assay type: cell-based; settings: 2 h, labeling site Other, peptide […]
# [3] = tested on: RSK1 domain1, RSK2 domain1, RSK3 domain1; assay: KiNativ, OCI cells live cell; assay type: cell-based, human; settings: labeling site Lys2, peptide DLKPENILLDEEGHIK
# SBK = SBK (Homo sapiens, UniProt Q52WX2); assay: KiNativ, OCI cells live cell; assay type: cell-based; settings: 2 h, labeling site Lys2, peptide […]
# Wnk1, Wnk2 = assay: KiNativ, OCI cells live cell; assay type: cell-based, human; settings: labeling site ATP Loop, peptide GSFKTVYK
# T2 sequence (P23458 whole entry): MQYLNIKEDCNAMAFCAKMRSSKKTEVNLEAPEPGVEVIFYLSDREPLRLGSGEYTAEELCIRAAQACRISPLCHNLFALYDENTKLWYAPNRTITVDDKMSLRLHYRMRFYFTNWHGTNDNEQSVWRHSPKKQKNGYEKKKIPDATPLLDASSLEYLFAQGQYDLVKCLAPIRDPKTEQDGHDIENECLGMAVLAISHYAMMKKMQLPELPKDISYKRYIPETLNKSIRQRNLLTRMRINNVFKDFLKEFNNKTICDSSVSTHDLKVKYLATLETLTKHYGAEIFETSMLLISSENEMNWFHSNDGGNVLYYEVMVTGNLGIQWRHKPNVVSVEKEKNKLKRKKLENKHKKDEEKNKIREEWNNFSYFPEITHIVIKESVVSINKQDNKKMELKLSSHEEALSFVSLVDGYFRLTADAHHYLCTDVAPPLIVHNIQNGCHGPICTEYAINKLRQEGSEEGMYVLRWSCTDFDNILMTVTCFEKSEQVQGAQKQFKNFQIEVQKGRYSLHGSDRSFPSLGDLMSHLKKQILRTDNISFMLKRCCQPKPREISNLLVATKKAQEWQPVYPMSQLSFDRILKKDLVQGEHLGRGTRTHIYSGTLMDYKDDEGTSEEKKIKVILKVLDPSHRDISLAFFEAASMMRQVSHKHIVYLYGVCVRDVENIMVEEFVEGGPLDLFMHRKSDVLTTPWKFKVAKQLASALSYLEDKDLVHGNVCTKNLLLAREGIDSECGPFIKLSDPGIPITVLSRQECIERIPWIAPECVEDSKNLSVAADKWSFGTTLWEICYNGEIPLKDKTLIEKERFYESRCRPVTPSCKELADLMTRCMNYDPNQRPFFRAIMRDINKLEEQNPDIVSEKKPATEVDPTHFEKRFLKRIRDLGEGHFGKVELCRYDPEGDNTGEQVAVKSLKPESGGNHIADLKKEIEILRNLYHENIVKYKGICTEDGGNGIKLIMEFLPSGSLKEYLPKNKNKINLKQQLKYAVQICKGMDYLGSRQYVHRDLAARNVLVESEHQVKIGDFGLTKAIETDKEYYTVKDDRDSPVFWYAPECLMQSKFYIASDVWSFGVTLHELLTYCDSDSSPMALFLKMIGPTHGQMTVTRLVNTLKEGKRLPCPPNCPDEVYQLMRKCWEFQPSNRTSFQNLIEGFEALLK
smiles,measurement,setting,value
CN1CCN(Cc2ccc(Nc3ncc(Cl)c(Nc4ccccc4S(=O)(=O)N(C)C)n3)cc2)CC1 [TP-0903],Kd,AURKB,< 5 nM
same,Kd,JAK1,23 nM
same,Kd,FLT3 D835H,1.9 nM
same,"pAURKA, pAURKB, pAKT, and MCL1 by immunoblot",[1],inhibited
same,phospho-FLT3 and phospho-STAT5 by immunoblot,[2],inhibited
same,inhibition at 0.1 µM,AKT1,-17.1%
same,inhibition at 0.1 µM,CK1a,-12.3%
same,Inhibition,"CSK; labeling site Activation Loop, peptide VSDFGLTKEASSTQDTGKLPVK",11.9%
same,Inhibition,"CSK; labeling site Lys1, peptide VAVKCIK",0.379%
same,inhibition at 0.1 µM,FES,47.3%
same,inhibition at 0.1 µM,HCK,-3.8%
same,Inhibition,"IRAK4; labeling site Lys1, peptide GYVNNTTVAVKK",-0.0707%
same,Inhibition,"IRAK4; labeling site Lys2, peptide DIKSANILLDEAFTAK",8.2%
same,Inhibition,"JNK1, JNK2, JNK3",14.0%
same,inhibition at 0.1 µM,MAP2K1,14.7%
same,inhibition at 0.1 µM,"MAP2K4; labeling site Activation Loop, peptide LCDFGISGQLVDSIAKTR",-0.165%
same,inhibition at 0.1 µM,"MAP2K4; labeling site Lys1, peptide MVHKPSGQIMAVKR",5.4%
same,inhibition at 0.1 µM,"MAP2K4; labeling site Lys2, peptide DIKPSNILLDR",3.5%
same,inhibition at 0.1 µM,MAP3K6,-13.5%
same,inhibition at 0.1 µM,"NDR1; labeling site Lys1, peptide DTGHVYAMKILR",12.3%
same,inhibition at 0.1 µM,"NDR1; labeling site Lys2, peptide DIKPDNLLLDSK",-7.7%
same,inhibition at 0.1 µM,PEK,-9.6%
same,inhibition at 0.1 µM,PHKg2,-5.7%
same,inhibition at 0.1 µM,"PKN1; labeling site Lys1, peptide VLLSEFRPSGELFAIKALK",63.2%
same,inhibition at 0.1 µM,"PKN1; labeling site Lys2, peptide DLKLDNLLLDTEGYVK",33.7%
same,inhibition at 0.1 µM,ROCK1,25%
same,Inhibition,[3],54.4%
same,inhibition at 0.1 µM,SBK,-0.9%
same,Inhibition,"Wnk1, Wnk2",-19.4%
